From PubChem BioAssay AID1259407 (Chemical Carcinogenesis Research Information System (CCRIS), 2018)
Active and inactive are the calls of the source. No rule for the calls is given here.

System: CCRIS mutagenicity, Ames/micronucleus/aberration tests
Assay: CCRIS mutagenicity studies
Conditions: Test System: AMES SALMONELLA TYPHIMURIUM
[1] = Strain/Indicator: TA98, Metabolic Activation: NONE, Method: STANDARD PLATE
[2] = Strain/Indicator: TA100, Metabolic Activation: NONE, Method: STANDARD PLATE
[3] = Strain/Indicator: TA1535, Metabolic Activation: NONE, Method: STANDARD PLATE
[4] = Strain/Indicator: TA1537, Metabolic Activation: NONE, Method: STANDARD PLATE
[5] = Strain/Indicator: TA1538, Metabolic Activation: NONE, Method: STANDARD PLATE

## Nc1ccc2ccc3cc4ccccc4c4ccc1c2c34
Strain/Indicator: TA98(1,8-DNP6), Metabolic Activation: NONE
  mutagenic call: active; positive
Strain/Indicator: TA98(1,8-DNP6), Metabolic Activation: RAT, LIVER, S-9, AROCLOR 1254
  mutagenic call: active; positive
Strain/Indicator: TA98(NR), Metabolic Activation: NONE
  mutagenic call: active; positive
Strain/Indicator: TA98(NR), Metabolic Activation: RAT, LIVER, S-9, AROCLOR 1254
  mutagenic call: active; positive
Strain/Indicator: TA98, Metabolic Activation: NONE
  mutagenic call: active; positive
Strain/Indicator: TA98, Metabolic Activation: RAT, LIVER, S-9, AROCLOR 1254
  mutagenic call: active; positive

## ClCC(CCl)(CCl)CCl
Strain/Indicator: TA97, Metabolic Activation: NONE, Method: STANDARD PLATE
  mutagenic call: inactive; negative
[1]
  mutagenic call: inactive; negative
Strain/Indicator: TA98, Metabolic Activation: RAT, LIVER, S-9, AROCLOR, Method: STANDARD PLATE
  mutagenic call: inactive; negative
[2]
  mutagenic call: inactive; negative
Strain/Indicator: TA100, Metabolic Activation: RAT, LIVER, S-9, AROCLOR, Method: STANDARD PLATE
  mutagenic call: inactive; negative
[3]
  mutagenic call: inactive; negative
[4]
  mutagenic call: inactive; negative
[5]
  mutagenic call: inactive; negative
Strain/Indicator: TA2637, Metabolic Activation: NONE, Method: STANDARD PLATE
  mutagenic call: inactive; negative

## O=C1C=C(S(=O)(=O)O)c2ccccc2C1=O
Strain/Indicator: TA97, Metabolic Activation: NONE, Method: PREINCUBATION
  mutagenic call: inactive; negative
Strain/Indicator: TA97, Metabolic Activation: RAT, LIVER, S-9, PHENOBARBITAL AND 5,6-BENZOFLAVONE, Method: PREINCUBATION
  mutagenic call: inactive; negative
Strain/Indicator: TA98, Metabolic Activation: NONE, Method: PREINCUBATION
  mutagenic call: inactive; negative
Strain/Indicator: TA98, Metabolic Activation: RAT, LIVER, S-9, PHENOBARBITAL AND 5,6-BENZOFLAVONE, Method: PREINCUBATION
  mutagenic call: inactive; negative
Strain/Indicator: TA100, Metabolic Activation: NONE, Method: PREINCUBATION
  mutagenic call: active; positive
Strain/Indicator: TA100, Metabolic Activation: RAT, LIVER, S-9, PHENOBARBITAL AND 5,6-BENZOFLAVONE, Method: PREINCUBATION
  mutagenic call: inactive; negative
Strain/Indicator: TA102, Metabolic Activation: NONE, Method: PREINCUBATION
  mutagenic call: inactive; negative
Strain/Indicator: TA102, Metabolic Activation: RAT, LIVER, S-9, PHENOBARBITAL AND 5,6-BENZOFLAVONE, Method: PREINCUBATION
  mutagenic call: inactive; negative
Strain/Indicator: TA104, Metabolic Activation: NONE, Method: PREINCUBATION
  mutagenic call: active; positive
Strain/Indicator: TA104, Metabolic Activation: RAT, LIVER, S-9, PHENOBARBITAL AND 5,6-BENZOFLAVONE, Method: PREINCUBATION
  mutagenic call: inactive; negative
Strain/Indicator: TA1535, Metabolic Activation: NONE, Method: PREINCUBATION
  mutagenic call: inactive; negative
Strain/Indicator: TA1535, Metabolic Activation: RAT, LIVER, S-9, PHENOBARBITAL AND 5,6-BENZOFLAVONE, Method: PREINCUBATION
  mutagenic call: inactive; negative
Strain/Indicator: TA1537, Metabolic Activation: NONE, Method: PREINCUBATION
  mutagenic call: inactive; negative
Strain/Indicator: TA1537, Metabolic Activation: RAT, LIVER, S-9, PHENOBARBITAL AND 5,6-BENZOFLAVONE, Method: PREINCUBATION
  mutagenic call: inactive; negative
Strain/Indicator: TA1538, Metabolic Activation: NONE, Method: PREINCUBATION
  mutagenic call: inactive; negative
Strain/Indicator: TA1538, Metabolic Activation: RAT, LIVER, S-9, PHENOBARBITAL AND 5,6-BENZOFLAVONE, Method: PREINCUBATION
  mutagenic call: inactive; negative
Strain/Indicator: TA2637, Metabolic Activation: NONE, Method: PREINCUBATION
  mutagenic call: active; positive
Strain/Indicator: TA2637, Metabolic Activation: RAT, LIVER, S-9, PHENOBARBITAL AND 5,6-BENZOFLAVONE, Method: PREINCUBATION
  mutagenic call: inactive; negative

## ClCCNCCCNc1c2ccccc2nc2ccccc12
[1]
  mutagenic call: active; positive
[2]
  mutagenic call: active; positive
[3]
  mutagenic call: active; positive
Strain/Indicator: TA1536, Metabolic Activation: NONE, Method: STANDARD PLATE
  mutagenic call: active; positive
[4]
  mutagenic call: active; positive
[5]
  mutagenic call: active; positive

## O=[N+]([O-])c1cccc2c1-c1cccc3cccc-2c13
[1]
  mutagenic call: active; positive
